Values joined by “and” are separate entries in the source; they are usually repeats but may differ in a detail not shown here. Identical values can stand only once.
How the values were obtained:
SK-OV-3 = assay: NCI one-dose screen; assay type: cell-based, human; settings: Ovarian SK-OV-3, 10 µM single dose
In short: (§1)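 At 10 μM, a single concentration, compounds were evaluated for antiproliferative effect in the NCI 60-line screen, with growth expressed relative to untreated control cells.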

MDA-MB-435 = assay: NCI one-dose screen; assay type: cell-based, human; settings: Melanoma MDA-MB-435, 10 µM single dose
In short: as §1

SF-295 = assay: NCI one-dose screen; assay type: cell-based, human; settings: CNS SF-295, 10 µM single dose
In short: as §1

SR = assay: NCI one-dose screen; assay type: cell-based, human; settings: Leukemia SR, 10 µM single dose
In short: as §1

A549/ATCC = assay: NCI one-dose screen; assay type: cell-based, human; settings: NSCLC A549/ATCC, 10 µM single dose
In short: as §1

SK-MEL-2 = assay: NCI one-dose screen; assay type: cell-based, human; settings: Melanoma SK-MEL-2, 10 µM single dose
In short: (§2)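 One concentration (10 μM) applied to each line of the full NCI-60 panel; percent growth compared against untreated cells.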

MOLT-4 = assay: NCI one-dose screen; assay type: cell-based, human; settings: for Growth Percent: Leukemia MOLT-4, 10 µM single dose
In short: (§3)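 Single 10 μM dose, NCI-60 panel; read-out = % growth vs untreated controls → % inhibition.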

HS 578T = assay: NCI one-dose screen; assay type: cell-based, human; settings: Breast HS 578T, 10 µM single dose
In short: as §1

HCT-116 = assay: NCI one-dose screen; assay type: cell-based, human; settings: Colon HCT-116, 10 µM single dose
In short: as §1

T-47D = assay: NCI one-dose screen; assay type: cell-based, human; settings: Breast T-47D, 10 µM single dose
In short: as §1

HL-60(TB) = assay: NCI one-dose screen; assay type: cell-based, human; settings: Leukemia HL-60(TB), 10 µM single dose
In short: as §1

UACC-257 = assay: NCI one-dose screen; assay type: cell-based, human; settings: Melanoma UACC-257, 10 µM single dose
In short: as §1

NCI-H322M = assay: NCI one-dose screen; assay type: cell-based, human; settings: NSCLC NCI-H322M, 10 µM single dose
In short: as §1

UO-31 = assay: NCI one-dose screen; assay type: cell-based, human; settings: for Growth Percent: Renal UO-31, 10 µM single dose
In short: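 Each cell line received compound at 10 μM as part of the NCI one-dose protocol. Values reflect growth inhibition percent calculated from growth relative to untreated controls.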

CAKI-1 = assay: NCI one-dose screen; assay type: cell-based, human; settings: Renal CAKI-1, 10 µM single dose
In short: as §1

KM12 = assay: NCI one-dose screen; assay type: cell-based, human; settings: for Growth Percent: Colon KM12, 10 µM single dose
In short: as §3

UACC-62 = assay: NCI one-dose screen; assay type: cell-based, human; settings: Melanoma UACC-62, 10 µM single dose
In short: as §1

HT29 = assay: NCI one-dose screen; assay type: cell-based, human; settings: Colon HT29, 10 µM single dose
In short: as §1

RPMI-8226 = assay: NCI one-dose screen; assay type: cell-based, human; settings: Leukemia RPMI-8226, 10 µM single dose
In short: as §1

SF-539 = assay: NCI one-dose screen; assay type: cell-based, human; settings: for Growth Percent: CNS SF-539, 10 µM single dose
In short: as §3

SNB-19 = assay: NCI one-dose screen; assay type: cell-based, human; settings: CNS SNB-19, 10 µM single dose
In short: as §2

M14 = assay: NCI one-dose screen; assay type: cell-based, human; settings: Melanoma M14, 10 µM single dose
In short: as §1

NCI-H460 = assay: NCI one-dose screen; assay type: cell-based, human; settings: NSCLC NCI-H460, 10 µM single dose
In short: as §1

NCI/ADR-RES = assay: NCI one-dose screen; assay type: cell-based, human; settings: Ovarian NCI/ADR-RES, 10 µM single dose
In short: as §1

Hela nuclear extracts = assay: Hela nuclear extract HDAC inhibitor assay (BPS Bioscience); assay type: biochemical; settings: 10 µM
In short: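 Percent activity was derived from fluorescence (ex 360, em 460 nm) relative to no-compound (100%) and no-extract (0%) wells. Reactions ran in duplicate for 60 min at 37 °C, combining diluted HeLa nuclear extract, HDAC Substrate 3 ([…]), BSA and compound in 1% DMSO, followed by developer.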

Structure (SMILES) | Growth Percent (SK-OV-3) | Growth Percent (MDA-MB-435) | Growth Percent (SF-295) | Growth Percent (SR) | Growth Percent (A549/ATCC) | Growth Percent (SK-MEL-2) | Growth Percent (MOLT-4) | Growth Percent (HS 578T) | Growth Percent (HCT-116) | Growth Percent (T-47D) | Growth Percent (HL-60(TB)) | Growth Percent (UACC-257) | Growth Percent (NCI-H322M) | Growth Percent (UO-31) | Growth Percent (CAKI-1) | Growth Percent (KM12) | Growth Percent (UACC-62) | Growth Percent (HT29) | Growth Percent (RPMI-8226) | Growth Percent (SF-539) | other results
Cc1c(C(=O)NCCC(=O)NO)sc2ncnc(Nc3ccc(F)c(Cl)c3)c12 [Compound 19d, 4–(3-chloro-4-fluorophenylamino)-N-(3-(hydroxyamino)-3-oxopropyl)-5-methylthieno[2,3-d]pyrimidine-6-carboxamide] | 129.2% and 129.24% | 101.8% and 101.82% | 96.0% and 96.07% | 110.82% | 104.3% and 104.35% | 100.6% and 100.61% | 115.3% and 115.32% | 103.1% and 103.12% | 107.3% | 106.5% and 106.56% | 102.8% | 99.7% and 99.74% | 108.1% and 108.11% | 84.8% and 84.81% | 96.6% and 96.62% | 103.8% and 103.84% | 102.3% and 102.36% | 104.1% | 110.0% and 110.01% | 98.0% and 98.02% | Growth Percent (SNB-19): 98.9% and 98.91%; Growth Percent (M14): 104.7% and 104.71%; Growth Percent (NCI-H460): 100.4% and 100.44%; Growth Percent (NCI/ADR-RES): 101.4% and 101.46%; % Inhibition Hela Nuclear Extracts (Hela nuclear extracts): 2%
Cc1c(C(=O)NCCC(=O)NO)sc2ncnc(Nc3ccc(NC(=O)Nc4ccccc4)cc3)c12 [Compound 11a, 1–(4-(6-((3-(hydroxyamino)-3-oxopropyl)carbamoyl)-5-methylthieno[2,3-d]pyrimidin-4-ylamino)phenyl)-3-phenylurea] | 123.7% and 123.79% | 102.2% and 102.21% | 95.2% and 95.29% | 108.7% and 108.77% | 97.7% and 97.77% | 107.0% and 107.07% | 110.5% and 110.52% | 99.6% and 99.62% | 102.9% and 102.94% | 107.7% and 107.73% | 103.5% and 103.58% | 101.0% and 101.08% | 101.2% and 101.26% | 83.7% and 83.77% | 94.5% and 94.51% | 103.2% and 103.23% | 98.7% and 98.79% | 104.0% and 104.03% | 109.4% | 90.3% and 90.31% | Growth Percent (SNB-19): 97.5% and 97.59%; Growth Percent (M14): 99.1% and 99.16%; Growth Percent (NCI-H460): 101.8% and 101.81%; Growth Percent (NCI/ADR-RES): 99.0% and 99.07%; % Inhibition Hela Nuclear Extracts (Hela nuclear extracts): 0%
Cc1c(C(=O)NO)sc2ncnc(Nc3ccccc3)c12 [Compound 15b, N-hydroxy-5-methyl-4-(phenylamino)thieno[2,3-d]pyrimidine-6-carboxamide] | 125.8% and 125.83% | 98.5% and 98.58% | 91.9% and 91.96% | 78.2% | 98.3% and 98.37% | 109.3% and 109.33% | 103.5% | 104.7% and 104.75% | 102.9% | 90.8% and 90.83% | 103.0% and 103.03% | 107.0% and 107.03% | 101.8% and 101.81% | 72.7% and 72.78% | 77.6% and 77.61% | 102.0% and 102.03% | 92.5% and 92.58% | 100.5% and 100.52% | 106.0% and 106.04% | 92.8% and 92.86% | Growth Percent (SNB-19): 93.0% and 93.06%; Growth Percent (M14): 100.4% and 100.48%; Growth Percent (NCI-H460): 101.6% and 101.66%; Growth Percent (NCI/ADR-RES): 96.1% and 96.17%; % Inhibition Hela Nuclear Extracts (Hela nuclear extracts): 9%
COc1cccc(NC(=O)Nc2ccc(Nc3ncnc4sc(C(=O)NCCC(=O)NO)c(C)c34)cc2)c1 [Compound 11b, 1–(4-(6-((3-(hydroxyamino)-3-oxopropyl)carbamoyl)-5-methylthieno[2,3-d]pyrimidin-4-ylamino)phenyl)-3–(3-methoxyphenyl)urea] | 123.7% and 123.78% | 100.8% and 100.85% | 100.0% and 100.08% | 112.2% and 112.27% | 96.2% and 96.21% | 116.4% and 116.43% | 107.2% and 107.22% | 100.7% | 101.6% and 101.62% | 100.1% | 103.9% and 103.99% | 99.1% and 99.15% | 100.7% and 100.74% | 83.4% and 83.44% | 95.6% and 95.62% | 99.5% and 99.57% | 95.3% and 95.33% | 104.4% and 104.43% | 110.5% | 98.0% and 98.07% | Growth Percent (SNB-19): 98.1%; Growth Percent (M14): 92.9% and 92.95%; Growth Percent (NCI-H460): 101.9% and 101.91%; Growth Percent (NCI/ADR-RES): 102.4% and 102.42%; % Inhibition Hela Nuclear Extracts (Hela nuclear extracts): 4%
Cc1c(C(=O)NO)sc2ncnc(Nc3ccc(NC(=O)Nc4cccc(C(F)(F)F)c4)cc3)c12 [Compound 7c, 1–(4-(6-(hydroxycarbamoyl)-5-methylthieno[2,3-d]pyrimidin-4-ylamino)phenyl)-3–(3-(trifluoromethyl)phenyl)urea] | 113.0% and 113.07% | 100.6% and 100.67% | 95.1% and 95.16% | 94.0% and 94.07% | 100.4% and 100.47% | 108.5% and 108.54% | 88.2% and 88.24% | 90.3% and 90.32% | 97.9% and 97.94% | 96.3% and 96.39% | 102.0% and 102.08% | 106.3% and 106.33% | 99.6% and 99.69% | 75.7% and 75.79% | 90.57% | 66.3% and 66.34% | 96.4% | 97.2% and 97.28% | 93.27% | 61.4% and 61.49% | inhibition at 10 µM (MOLT-4; Homo sapiens, leukaemia MOLT-4, 10 μM): 11.8%; inhibition at 10 µM (UO-31; Homo sapiens, renal UO-31, 10 μM): 24.7%; inhibition at 10 µM (KM12; Homo sapiens, colon KM12, 10 μM): 33.7%; inhibition at 10 µM (SF-539; Homo sapiens, CNS SF-539, 10 μM): 38.6%; Growth Percent (SNB-19): 90.8% and 90.81%; Growth Percent (M14): 102.4% and 102.43%; Growth Percent (NCI-H460): 101.7% and 101.73%; Growth Percent (NCI/ADR-RES): 97.6% and 97.66%; % Inhibition Hela Nuclear Extracts (Hela nuclear extracts): 3%
